From article PMC4539082 (Drug Design, Development and Therapy, 2015)
Values belong to the compound of their own block, whether it stands above or below them.

What was measured:
[1] = one patient with malignant melanoma; doses up to 15 mg/kg; cited from earlier work
[2] = 13 patients, 3 mg/kg every 21 days; cited from earlier work
p38MAPK = p38MAPK (Homo sapiens, UniProt Q16539); experiment: p38MAPK inhibition, single-point determination; type: biochemical; conditions: read-out: p38MAPK, IC50, data on file
Chain of p38MAPK (Q16539 whole entry): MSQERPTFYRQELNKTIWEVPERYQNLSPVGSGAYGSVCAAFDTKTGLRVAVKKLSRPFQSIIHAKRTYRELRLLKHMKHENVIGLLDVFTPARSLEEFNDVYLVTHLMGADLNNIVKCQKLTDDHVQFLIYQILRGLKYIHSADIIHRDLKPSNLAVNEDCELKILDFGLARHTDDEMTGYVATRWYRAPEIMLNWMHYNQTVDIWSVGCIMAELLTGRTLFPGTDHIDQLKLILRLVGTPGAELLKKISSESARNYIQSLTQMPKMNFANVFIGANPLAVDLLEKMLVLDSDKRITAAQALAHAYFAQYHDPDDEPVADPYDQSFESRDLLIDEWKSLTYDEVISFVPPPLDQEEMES

NIH3T3 = experiment: Growth inhibition in mouse fibroblasts; type: cell-based; conditions: read-out: NIH3T3, IC50; Mean values ± SEM for a minimum of three determinations (n); data on file
p3TP Lux mink lung cells = experiment: TGF-β-dependent luciferase assay in mink lung cells; type: cell-based; conditions: read-out: p3TP lux, IC50; Mean values ± SEM for a minimum of three determinations (n); data on file
[3] = tested on: cell lines that had no T790M mutation; conditions: cell lines without T790M mutation; cited from earlier work
Half-life in dog = type: in vivo
Half-life in mice = conditions: mouse, in vivo
[4] = patients; cited from earlier work
PDX of melanoma = conditions: cited from earlier work
Half-life in rat = type: in vivo
MDAPCa2b and PC-3 = conditions: cited from earlier work
lung fibrosis = conditions: administration before, during, and after radiation treatment; cited from earlier work
NSCLC cell lines = conditions: cited from earlier work
[5] = tested on: pSMAD2 in glioblastoma cell lines; conditions: lomustine by itself; cited from earlier work
TGF-βR-I kinase domain = target: T1, TGF-βR-I kinase domain (Homo sapiens, UniProt P36897, T204D); experiment: Ki of Eli Lilly TGF-β SMIs; type: biochemical; conditions: data on file, Eli Lilly and Company
T1 sequence (P36897 148-503 T204D limits assumed): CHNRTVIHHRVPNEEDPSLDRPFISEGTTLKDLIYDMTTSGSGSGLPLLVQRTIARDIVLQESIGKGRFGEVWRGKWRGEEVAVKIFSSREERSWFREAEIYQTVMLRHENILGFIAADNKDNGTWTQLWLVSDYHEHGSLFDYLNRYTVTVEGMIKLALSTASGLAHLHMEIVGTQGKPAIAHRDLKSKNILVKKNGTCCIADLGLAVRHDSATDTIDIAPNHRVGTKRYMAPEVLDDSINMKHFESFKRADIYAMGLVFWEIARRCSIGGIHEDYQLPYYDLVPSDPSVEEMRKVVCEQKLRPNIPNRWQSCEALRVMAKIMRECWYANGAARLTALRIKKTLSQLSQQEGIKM

Compound: fresolimumab: pan-TGF-β ligand monoclonal antibody
- duration of partial response [1]: 44.4 weeks
- radiographic responses [2]: None of the patients had radiographic responses

- IC50 (p38MAPK): 740 nM
- IC50 (p3TP Lux mink lung cells): 47 ± 16 nM
Compound: c1ccc(-c2[nH]ncc2-c2ccnc3ccccc23)nc1 [LY364947]
- IC50 (NIH3T3): 89 ± 10 nM
- EGFR resistance [3]: able to overcome the EGFR resistance

- half-life (Half-life in dog; dog, in vivo): 136 min
- half-life (Half-life in mice): 18 min
- half-life (Half-life in rat; rat, in vivo): 31.8 min
Compound: Cc1cccc(-c2nn3c(c2-c2ccnc4ccc(C(N)=O)cc24)CCC3)n1 [Galunisertib (LY2157299)]
- drug-related Grade 3/4 toxicities [4]: < 5%
- pSMAD2 (PDX of melanoma; PDX of melanoma): inhibited
- growth inhibitory effect (PDX of melanoma; standard tumor colony assay, melanoma PDX): no growth inhibitory effect

- Half-life mean (Half-life in dog; Dog, data on file): 60 to 120 min
- IC50 (p3TP Lux mink lung cells): 180 ± 93 nM
- Half-life mean (Half-life in rat; Rat, data on file): 108 min
Compound: c1ccc(-c2nn3c(c2-c2ccnc4cc(OCCN5CCOCC5)ccc24)CCC3)nc1 [LY2109761]
- antitumor activity, bone metastasis (MDAPCa2b and PC-3): inhibiting bone metastasis
- lung fibrosis (lung fibrosis): inhibited lung fibrosis
- IC50 (NIH3T3): 210 ± 170 nM
- metastatic spread (NSCLC cell lines): reduced metastatic spread

Compound: O=NN(CCCl)C(=O)NC1CCCCC1 [lomustine]
- pSMAD2 [5]: reduced pSMAD2

- Ki (TGF-βR-I kinase domain): 37 nM
- IC50 (p38MAPK): > 20000 nM
- IC50 (p3TP Lux mink lung cells): 96 ± 16 nM
Compound: Cc1cccc(-c2nn3c(c2-c2ccc(F)cc2)CCC3)n1 [LY580276]
- IC50 (NIH3T3): 339 ± 349 nM
